Series [1] can be described thus: Comparative experiment of hygroscopicity (Chinese Pharmacopoeia 2020). Type of series: physicochemical. From the text: The description of hygroscopic characteristics and the definition of hygroscopic weight gain are as follows: • Deliquescence: absorbs sufficient amount of water to form a liquid; • Very hygroscopic: the weight gain by hygroscopy is not less than 15%; • Hygroscopic: the weight gain by hygroscopy is less than 15% but not less than 2%; • Slightly hygroscopic: the weight gain by hygroscopy is less than 2% but not less than 0.2%; and
Not or almost not hygroscopic: the weight gain by hygroscopy is less than 0.2% from hygroscopicity.

For series [2], the target named is T1, BaF3 cells expressing EML-4-ALK-L1196M (Homo sapiens, UniProt Q9UM73, L1196M, cells depend on it).
T1 construct: fused on or other part: Q9HC35 (Echinoderm microtubule-associated protein-like 4)
T1 sequence (Q9UM73 whole entry L1196M, the tested form may be a part): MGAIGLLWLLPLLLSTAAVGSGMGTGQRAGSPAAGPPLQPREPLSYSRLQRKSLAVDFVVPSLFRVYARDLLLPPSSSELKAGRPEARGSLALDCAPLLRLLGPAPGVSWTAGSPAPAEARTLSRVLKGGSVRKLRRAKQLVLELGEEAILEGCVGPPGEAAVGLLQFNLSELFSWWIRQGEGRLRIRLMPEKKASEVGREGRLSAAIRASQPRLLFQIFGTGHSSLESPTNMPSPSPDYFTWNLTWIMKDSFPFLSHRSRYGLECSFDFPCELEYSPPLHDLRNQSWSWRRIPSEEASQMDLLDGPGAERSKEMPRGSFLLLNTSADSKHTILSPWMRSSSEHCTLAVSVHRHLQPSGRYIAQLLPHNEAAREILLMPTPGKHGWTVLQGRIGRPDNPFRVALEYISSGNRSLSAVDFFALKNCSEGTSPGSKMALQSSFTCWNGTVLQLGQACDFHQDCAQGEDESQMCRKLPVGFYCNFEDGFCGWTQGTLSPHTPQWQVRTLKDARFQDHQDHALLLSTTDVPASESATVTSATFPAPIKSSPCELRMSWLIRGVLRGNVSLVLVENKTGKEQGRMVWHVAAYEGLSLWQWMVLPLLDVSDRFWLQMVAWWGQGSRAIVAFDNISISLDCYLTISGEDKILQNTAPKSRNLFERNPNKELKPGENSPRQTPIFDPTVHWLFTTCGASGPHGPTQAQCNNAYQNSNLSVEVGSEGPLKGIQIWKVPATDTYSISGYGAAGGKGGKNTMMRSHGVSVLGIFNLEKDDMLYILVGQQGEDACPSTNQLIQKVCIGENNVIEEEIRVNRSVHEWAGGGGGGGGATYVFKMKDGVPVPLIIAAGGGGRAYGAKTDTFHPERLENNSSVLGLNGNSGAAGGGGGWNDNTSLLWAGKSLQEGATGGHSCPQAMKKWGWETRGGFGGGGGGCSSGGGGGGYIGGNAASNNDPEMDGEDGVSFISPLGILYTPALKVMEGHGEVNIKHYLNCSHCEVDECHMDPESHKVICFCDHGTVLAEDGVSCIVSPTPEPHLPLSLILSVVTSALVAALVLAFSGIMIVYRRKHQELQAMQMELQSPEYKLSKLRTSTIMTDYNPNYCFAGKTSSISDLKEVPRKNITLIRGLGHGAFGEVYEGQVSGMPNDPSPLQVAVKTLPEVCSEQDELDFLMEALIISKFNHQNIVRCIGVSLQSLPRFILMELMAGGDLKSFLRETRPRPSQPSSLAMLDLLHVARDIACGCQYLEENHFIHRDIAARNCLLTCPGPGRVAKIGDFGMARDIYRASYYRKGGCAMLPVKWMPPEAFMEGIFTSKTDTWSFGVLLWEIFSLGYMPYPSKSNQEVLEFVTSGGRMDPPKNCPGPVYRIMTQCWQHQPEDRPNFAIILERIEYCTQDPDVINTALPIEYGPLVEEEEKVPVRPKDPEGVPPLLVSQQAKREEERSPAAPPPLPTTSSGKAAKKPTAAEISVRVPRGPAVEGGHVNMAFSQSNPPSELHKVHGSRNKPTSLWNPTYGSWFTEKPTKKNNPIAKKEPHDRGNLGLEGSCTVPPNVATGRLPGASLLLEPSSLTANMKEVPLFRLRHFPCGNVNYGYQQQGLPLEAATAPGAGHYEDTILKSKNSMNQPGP
The experiment in a line: Cell anti-proliferation experiment 3, BaF3 cells with ALK fusion and mutation (CellTiter-Glo). The series is classed as cell-based. The settings on record: 3 days, CTG, read-out: EML-4-ALK-L1196M IC50. From the text:
(§1) • 1. […] Test information: • 2.1. Cell information: Cell lines containing ALK mutations in BaF3 were from WuXiAppTec: • Ba/F3-cell lines expressing ALK gene fusion and mutation • Ba/F3-EML-4-ALK-WT • Ba/F3-EML-4-ALK-L 1196M • 2.2.
(§2) Test results: The IC50 values of the compound DA and the control compound against BaF3 cells expressing EML-4-ALK-WT and EML-4-ALK-L1196M are shown in Table 22. • 4.

The next series is described as follows: Solubility test. Type of series: physicochemical. Particulars: Solution with pH = 6.8, 25° C.±2° C.
The target of series [3] is Ba/F3 cells expressing EGFR-T790M/L858R (Homo sapiens, UniProt P00533, T790M/L858R, cells depend on it). The series is described as follows: Cell anti-proliferation experiment 1, BaF3 cells expressing EGFR mutation (CellTiter-Glo). Particulars: 3 days, CTG, read-out: EGFR-T790M/L858R IC50. The series is classed as cell-based.
Description: (§6) Test purpose: to detect the effect of the test compounds on the proliferation of cell lines containing EGFR mutations in BaF3 cells • 2. Test information: • 2.1. Cell information: Cell lines containing EGFR mutations in BaF3 were from WuXiAppTec: • BaF3-cell lines expressing EGFR mutation • EGFR-T790M/Del19 • EGFR-C797S/Del19 • EGFR-T790M/L858R • EGFR-C797S/L858R • EGFR-C797S/T790M/L858R • EGFR-C797S/T790M/Del19 • EGFR-WT wild-type cell lines • 2.2. Test method • Day 0: Cells were seeded in a plate. • a. An ultraviolet lamp of a biological safety cabinet was turned on and countdown was started for 30 minutes. • b. A medium was preheated in a 37° C. water bath. • c. After the ultraviolet irradiation was finished, the biological safety cabinet was opened. […] The cells were removed from an incubator, blown to a uniform cell suspension in the biological safety cabinet and counted. • e. […] The IC50 of each compound was calculated by computer fitting with XL-Fit analysis software (the IC50 of the compound on the cell activity inhibition could be obtained by reading the concentrations of the corresponding compounds at 500 inhibition rate). Inhibition rate % C (reading value of the control group without drug−reading value of the sample)/reading value of the control group without drug×100. • 3.
The subject of series [4] is PC9 cells expressing EGFR-C797S/T790M/Del19. The experiment in a line: Cell anti-proliferation experiment 2, PC9 cells (SRB). Type of series: cell-based. Particulars: Homo sapiens, PC-9, 72 h, read-out: EGFR-C797S/T790M/Del19 GI50. As to the method:
(§3) • 1. […] Test information: • 2.1. Cell information: PC9 cells carried EGFR Del19 mutation, and the rest of mutant cells were constructed from PC9 cells according to the conventional stable cell strain construction method. • PC9-cell lines expressing EGFR mutation • EGFR-Del19 • EGFR-T790M/Del19 • EGFR-C797S/T790M/Del19 • 2.2. Test method:
(§4) The test compounds were diluted by 5 times each time with an appropriate concentration as an initial concentration of the test, and totally diluted into 6 concentration gradients. […] SRB (Sulforhodamine B) detection method was used, and the optical density value of each well was read by a microplate reader at 490 nm wavelength.
(§5) The optical density of the cells at the drug action of 0 was set as a Tz value representing the value of the cells at the time that the drug was added. The optical density value of the cells after the solvent control DMSO acted for 72 hours was set as a C value. The optical density of the cells on which the test compounds acted for 72 hours was set as a Ti value. The response of the cells to the drug was calculated according to a method proposed by the U.S. NIH-NCI (National Institutes of Health-National Institute of Cancer): When Ti is more than or equal to Tz, the value was [(Ti−Tz)/(C−Tz)]×100; and when Ti is less than Tz, the value was [(Ti−Tz)/Tz]×100.

Series [5] concerns PC9 cells expressing EGFR-Del19. The series is described as above. Type of series: cell-based. The settings on record: Homo sapiens, PC-9, 72 h, read-out: EGFR-Del 19 GI50. As to the method:
as §3, §4, §5

For series [6], the system named is PC9 cells expressing EGFR-T790M/Del19. The description is as above. Type of series: cell-based. Particulars: Homo sapiens, PC-9, 72 h, read-out: EGFR-T790M/Del19 GI50. As to the method: as §3, §4, §5
Series [7] has as its target Ba/F3 cells expressing EGFR-C797S/Del19 (Homo sapiens, UniProt P00533, C797S, cells depend on it, form not given). The series is described as follows: Cell anti-proliferation experiment 1, BaF3 cells expressing EGFR mutation (CellTiter-Glo). The series is classed as cell-based. The settings on record: 3 days, CTG, read-out: EGFR-C797S-Del19 IC50.
In series [8] the target is Ba/F3 cells expressing EGFR-C797S/L858R (Homo sapiens, UniProt P00533, C797S/L858R, cells depend on it). The series is described as above. The settings on record: 3 days, CTG, read-out: EGFR-C797S/L858R IC50. The series is classed as cell-based.
Description: as §6
In series [9] the target is Ba/F3 cells expressing EGFR-WT (Homo sapiens, UniProt P00533). The experiment in a line: Cell anti-proliferation experiment 1, BaF3 EGFR-WT wild-type cell line (CellTiter-Glo). The series is classed as cell-based. Particulars: read-out: EGFR-WT IC50.
Description: (§7) Test purpose: to detect the effect of the test compounds on the proliferation of cell lines containing EGFR mutations in BaF3 cells • 2. […] Cell information: Cell lines containing EGFR mutations in BaF3 were from WuXiAppTec: • BaF3-cell lines expressing EGFR mutation • EGFR-T790M/Del19 • EGFR-C797S/Del19 • EGFR-T790M/L858R • EGFR-C797S/L858R • EGFR-C797S/T790M/L858R • EGFR-C797S/T790M/Del19 • EGFR-WT wild-type cell lines • 2.2. Test method • Day 0: Cells were seeded in a plate. • a. An ultraviolet lamp of a biological safety cabinet was turned on and countdown was started for 30 minutes. • b. A medium was preheated in a 37° C. water bath. • c. After the ultraviolet irradiation was finished, the biological safety cabinet was opened. The pre-heated medium, PBS, and the like, were wiped with alcohol and placed in the biological safety cabinet. • d. The cells were removed from an incubator, blown to a uniform cell suspension in the biological safety cabinet and counted. • e. Based on the cell counting results, the cell suspension was adjusted to a density of 3,000 cells per well and 50 microliters per well, and seeded in 384-well plates. • f. The cells after seeding were incubated in a 5% CO2 incubator at 37° C. for 3 hours. • g. Compounds were added to the cell plates using Tecan (liquid workstation). • Day 3: the cell plate added with the compounds and CTG (CellTiter-Glo chemiluminescence cell activity assay reagent) were equilibrated at room temperature, 25 μl of CTG was added to each well, centrifuged at 1,000 rpm for 1 minute, and shaken for 1-2 minutes. And centrifuging for 1 minute at 1,000 rpm again, the cell plates were allowed to settle for 10 minutes to detect a signal value in Envision. The IC50 of each compound was calculated by computer fitting with XL-Fit analysis software (the IC50 of the compound on the cell activity inhibition could be obtained by reading the concentrations of the corresponding compounds at 500 inhibition rate). Inhibition rate % C (reading value of the control group without drug−reading value of the sample)/reading value of the control group without drug×100. • 3.
The target of series [10] is Ba/F3 cells expressing EGFR-C797S/T790M/Del19 (Homo sapiens, UniProt P00533, T790M/C797S, cells depend on it, form not given). The experiment in a line: Cell anti-proliferation experiment 1, BaF3 cells expressing EGFR mutation (CellTiter-Glo). Particulars: read-out: EGFR-C797S/T790M/Del19 IC50. Type of series: cell-based.
The target of series [11] is T2, BaF3 EML-4-ALK-L1196M cell line (Homo sapiens, UniProt Q9UM73, L1196M, cells depend on it).
T2 construct: fused on or other part: Q9HC35 (Echinoderm microtubule-associated protein-like 4)
T2 sequence (Q9UM73 whole entry L1196M, the tested form may be a part): as above
The series is described as follows: Cell anti-proliferation experiment 4 (CCK-8). The series is classed as cell-based. Particulars: BaF3 EML-4-ALK-L1196M cells, 72 hours. As to the method: • 1. […] Test materials • BaF3 EML-4-ALK-L1196M cell line, brand: KYinno, article number: KC-0102 • Cell Counting Kit-8 (CCK-8), brand: Targetmol, article number: C0005 • Multifunctional microplate reader, POLARstar Omega, brand: BMG LABTECH • 3. […] 10 μL of the compound diluted in gradient was added to the cell plate to give final concentrations of the compounds as 500, 166.67, 55.56, 18.52, 6.17, 2.06, 0.69, 0.23 and 0.08 nM. • d. […] Test results: The IC50 values of compound DA and compound 1 in the patent application WO2021073498A1 against BaF3 cells expressing EML-4-ALK-L1196M are shown in Table 23.

The target of series [12] is Ba/F3 cells expressing EGFR-T790M/Del19 (Homo sapiens, UniProt P00533, T790M, cells depend on it, form not given). The series is described as follows: Cell anti-proliferation experiment 1, BaF3 cells expressing EGFR mutation (CellTiter-Glo). Type of series: cell-based. The settings on record: 3 days, CTG, read-out: EGFR-T790M/Del19 IC50.
In series [13] the target is Ba/F3 cells expressing EGFR-C797S/T790M/L858R (Homo sapiens, UniProt P00533, T790M/C797S/L858R, cells depend on it). Described as above. The series is classed as cell-based. The settings on record: read-out: EGFR-C797S/T790M/L858R IC50.
Sequence of Ba/F3 cells expressing EGFR-C797S/T790M/L858R (P00533 whole entry T790M/C797S/L858R): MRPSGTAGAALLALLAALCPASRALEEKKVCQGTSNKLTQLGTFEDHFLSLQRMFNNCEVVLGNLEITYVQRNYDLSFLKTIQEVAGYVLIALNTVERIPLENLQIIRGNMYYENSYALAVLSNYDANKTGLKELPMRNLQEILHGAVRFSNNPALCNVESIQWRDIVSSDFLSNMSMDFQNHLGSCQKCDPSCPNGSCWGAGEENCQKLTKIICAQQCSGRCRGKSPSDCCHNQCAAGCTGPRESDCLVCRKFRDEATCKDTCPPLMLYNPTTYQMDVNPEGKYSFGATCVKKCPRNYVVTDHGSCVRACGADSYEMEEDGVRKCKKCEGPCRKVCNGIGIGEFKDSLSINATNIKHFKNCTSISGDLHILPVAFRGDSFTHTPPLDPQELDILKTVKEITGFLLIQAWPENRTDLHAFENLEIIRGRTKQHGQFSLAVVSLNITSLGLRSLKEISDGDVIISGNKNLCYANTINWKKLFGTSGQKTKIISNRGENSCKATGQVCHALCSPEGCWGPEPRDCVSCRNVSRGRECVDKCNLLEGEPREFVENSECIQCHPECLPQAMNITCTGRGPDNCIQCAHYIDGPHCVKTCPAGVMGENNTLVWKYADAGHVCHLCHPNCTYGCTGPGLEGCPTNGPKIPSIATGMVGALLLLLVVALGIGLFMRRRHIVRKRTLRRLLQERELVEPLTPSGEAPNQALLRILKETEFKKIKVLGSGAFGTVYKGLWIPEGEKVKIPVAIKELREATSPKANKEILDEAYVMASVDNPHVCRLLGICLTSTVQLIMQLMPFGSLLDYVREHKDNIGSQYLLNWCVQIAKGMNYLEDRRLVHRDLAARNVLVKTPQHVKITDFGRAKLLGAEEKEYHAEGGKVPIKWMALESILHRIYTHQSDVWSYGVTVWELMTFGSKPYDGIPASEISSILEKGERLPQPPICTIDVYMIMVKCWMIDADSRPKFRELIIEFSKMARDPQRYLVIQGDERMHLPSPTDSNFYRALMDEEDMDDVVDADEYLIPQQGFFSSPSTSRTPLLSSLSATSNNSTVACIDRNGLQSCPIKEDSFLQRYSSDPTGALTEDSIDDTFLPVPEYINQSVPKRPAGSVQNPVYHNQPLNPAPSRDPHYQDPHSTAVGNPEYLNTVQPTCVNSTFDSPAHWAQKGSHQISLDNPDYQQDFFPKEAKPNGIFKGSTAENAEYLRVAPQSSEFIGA
Description: as §7
The target of series [14] is T3, BaF3 cells expressing EML-4-ALK-WT (Homo sapiens, UniProt Q9UM73).
T3 construct: fused on or other part: Q9HC35 (Echinoderm microtubule-associated protein-like 4)
T3 sequence (Q9UM73 whole entry, change not shown, the tested form may be a part): as the sequence (Q9UM73 whole entry L1196M, the tested form may be a part) above, with M1196L counted along it
The series is described as follows: Cell anti-proliferation experiment 3, BaF3 cells with ALK fusion (CellTiter-Glo). The settings on record: 3 days, CTG, read-out: EML-4-ALK-WT IC50. The series is classed as cell-based.
Description: as §1, §2

From patent US20240376138A1, “Crystal Forms, Preparation Method And Application Of Aryl Phosphine Oxide Compound” (Chengdu Di'Ao Jiuhong Pharmaceutical Factory, priority 2021, published 2024) come the findings set out here.

Molecules are shown by their SMILES. Where two headings read alike, the source gives them in different places.

Sequence of Ba/F3 cells expressing EGFR-C797S/Del19 (P00533 with tags, fused parts or gaps DEL746-750/C797S, form open): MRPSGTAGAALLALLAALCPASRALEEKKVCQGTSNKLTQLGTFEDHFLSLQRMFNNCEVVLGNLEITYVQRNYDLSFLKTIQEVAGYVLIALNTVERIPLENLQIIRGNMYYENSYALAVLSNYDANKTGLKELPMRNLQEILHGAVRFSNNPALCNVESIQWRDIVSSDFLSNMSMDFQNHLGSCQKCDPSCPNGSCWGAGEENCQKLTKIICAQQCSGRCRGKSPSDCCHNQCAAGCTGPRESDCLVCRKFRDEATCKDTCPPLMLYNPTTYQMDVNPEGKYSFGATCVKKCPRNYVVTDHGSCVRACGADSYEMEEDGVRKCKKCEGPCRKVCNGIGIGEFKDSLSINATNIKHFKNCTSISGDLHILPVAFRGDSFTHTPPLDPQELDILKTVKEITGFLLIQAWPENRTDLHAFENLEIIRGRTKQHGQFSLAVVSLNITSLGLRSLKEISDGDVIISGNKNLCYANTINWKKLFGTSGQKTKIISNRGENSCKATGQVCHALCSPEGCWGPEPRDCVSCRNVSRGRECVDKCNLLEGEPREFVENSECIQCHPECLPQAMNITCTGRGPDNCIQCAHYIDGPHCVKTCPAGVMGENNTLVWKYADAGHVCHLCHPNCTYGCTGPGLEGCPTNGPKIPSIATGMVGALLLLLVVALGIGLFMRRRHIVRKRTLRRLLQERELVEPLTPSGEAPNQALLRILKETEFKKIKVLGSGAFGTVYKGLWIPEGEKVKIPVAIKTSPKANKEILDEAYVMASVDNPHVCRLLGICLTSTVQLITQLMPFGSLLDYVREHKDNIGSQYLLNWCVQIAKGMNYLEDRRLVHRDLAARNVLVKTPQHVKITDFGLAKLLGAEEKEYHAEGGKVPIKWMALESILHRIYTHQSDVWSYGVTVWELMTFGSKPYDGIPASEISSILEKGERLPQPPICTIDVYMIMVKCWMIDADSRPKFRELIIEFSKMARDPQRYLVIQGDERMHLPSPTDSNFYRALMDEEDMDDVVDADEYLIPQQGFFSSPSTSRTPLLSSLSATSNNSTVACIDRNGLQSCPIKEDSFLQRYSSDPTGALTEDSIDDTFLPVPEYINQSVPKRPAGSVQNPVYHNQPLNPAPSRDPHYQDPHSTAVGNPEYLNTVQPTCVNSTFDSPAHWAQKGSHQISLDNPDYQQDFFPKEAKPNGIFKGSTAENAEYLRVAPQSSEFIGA

With `COc1cc(N2CCC(N3CCN(C)CC3)CC2)c(C)cc1Nc1ncc(Br)c(Nc2ccc(C)cc2P(C)(C)=O)n1` [Compound DA, (2-((5-Bromo-2-((2-methoxy-5-methyl-4-(4-(4-methylpiperazin-1-yl)piperidin-1-yl)phenyl)amino)pyrimidin-4-yl)amino)-5-methylphenyl)dimethylphosphorus oxide], the Hygroscopicity result in series [1] (class by weight gain after 24 h) is on record as “Hygroscopic (the weight gain by hygroscopy is less than 15% but not less than 2%)”. Besides, in series [1] (hygroscopicity test, 24 h), the “Weight gain % after 24 h” value was determined as 3.78%. The GI50 in series [2] was found to be 13.1 nM; in series [3], 22.5 nM; in series [4], 15.6 nM; in [5], 48.4 nM; in [6] it was 12.8 nM; in series [7], 48.1 nM. The GI50 in series [8] was found to be 32.6 nM; in series [9] it was 1260 nM; in series [10], 16.5 nM; in [11] (CCK-8, first test, read-out: IC50 in the first test), 15.1 nM; in series [11] (CCK-8, second test, read-out: IC50 in the second test) it was 10.4 nM; in series [12], 6.5 nM. Moreover, the GI50 in series [13] is 64.1 nM; in series [14], 8 nM. Also, in “Solubility test”, the “Solubility for 24 h” value was 2110 µg/mL.
